Experimental data reported in ChEMBL document CHEMBL5385942, “C3-Symmetric ligands in drug design: An overview of the challenges and opportunities ahead” (Bioorg Med Chem Lett, 2024).
pEC50, pIC50: −log10 of the molar value.

What was measured:
[1] = Growth inhibition of human NCI cells; assay type: functional
[2] = system: MDA-MB-468; test: Antiproliferative activity against human MDA-MB-468 cells assessed as inhibition of cell growth; assay type: functional, cell-based
[3] = system: Human betaherpesvirus 5; test: Antiviral activity against HCMV infected in HFF cells assessed as reduction in viral replication; assay type: functional, organism-based; conditions: Human betaherpesvirus 5, HFF
[4] = system: HepG2; test: Cytotoxicity against human HepG2 cells assessed as inhibition of cell growth incubated for 24 to 48 hrs by MTT assay; assay type: functional, cell-based
[5] = system: Bacillus subtilis; test: Antimicrobial activity against Bacillus subtilis MTCC 441 assessed as zone of inhibition by […]; assay type: functional; on IZ: test concentration or dose not given here
[6] = system: Micrococcus luteus; test: Antimicrobial activity against Micrococcus luteus ATCC 9341 assessed as zone of inhibition by […]; assay type: functional; on IZ: test concentration or dose not given here
[7] = system: Escherichia coli; test: Antimicrobial activity against Escherichia coli ATCC 25922 assessed as zone of inhibition by […]; assay type: functional
[8] = system: Pseudomonas aeruginosa; test: Antimicrobial activity against Pseudomonas aeruginosa MTCC 741 assessed as zone of inhibition by […]; assay type: functional, organism-based
[9] = system: Staphylococcus aureus; test: Antimicrobial activity against Staphylococcus aureus MTCC 96 assessed as zone of inhibition by […]; assay type: functional
[10] = system: MCF7; test: Antiproliferative activity against human MCF7 cells assessed as inhibition of cell growth incubated for 24 hrs by SRB assay; assay type: functional, cell-based; conditions: MCF7, 24 h
[11] = system: T47D; test: Antiproliferative activity against human T47D cells assessed as inhibition of cell growth incubated for 24 hrs by SRB assay; assay type: functional, cell-based
[12] = system: LNCaP; test: Antiproliferative activity against human LNCaP cells assessed as inhibition of cell growth incubated for 24 hrs by SRB assay; assay type: functional, cell-based
[13] = Antiproliferative activity against human SW707 cells assessed as inhibition of cell growth incubated for 24 hrs by SRB assay; assay type: functional, cell-based; conditions: SW707, 24 h
[14] = system: A549; test: Antiproliferative activity against human A549 cells assessed as inhibition of cell growth incubated for 24 hrs by SRB assay; assay type: functional, cell-based; conditions: A549, 24 h
[15] = system: Jurkat; test: Antiproliferative activity against human Jurkat cells assessed as inhibition of cell growth incubated for 24 hrs by SRB assay; assay type: functional, cell-based
[16] = system: HeLa; test: Cytotoxicity against human HeLa cells assessed as inhibition of cell growth incubated for 24 hrs by MTT assay; assay type: functional, cell-based

c1ccc(Sc2nc(Sc3ccccc3)nc(Sc3ccccc3)n2)cc1
GI50 [1]: > 100000 nM

c1ccc(Sc2nc(Sc3ccccn3)nc(Sc3ccccn3)n2)nc1
GI50 [1]: 3170 nM
pIC50 [2]: 3.67

C[C@@H]1CCC2[C@@H](C)[C@H](OC(=O)CCC(=O)OCC(COC(=O)CCC(=O)O[C@@H]3O[C@@H]4O[C@]5(C)CC[C@H]6[C@H](C)CCC([C@H]3C)[C@@]46OO5)COC(=O)CCC(=O)O[C@@H]3O[C@@H]4O[C@]5(C)CC[C@H]6[C@H](C)CCC([C@H]3C)[C@@]46OO5)O[C@@H]3O[C@]4(C)CC[C@@H]1[C@@]23OO4 (stereo partly drawn)
pEC50 [3]: 6.28

O=C(N/N=C\c1ccc(N(CCCl)CCCl)cc1)c1cc(C(=O)N/N=C\c2ccc(N(CCCl)CCCl)cc2)cc(C(=O)N/N=C/c2ccc(N(CCCl)CCCl)cc2)c1
IC50 [4]: 25 µmol

c1ccc(Nc2nc(Nc3ccccn3)nc(Nc3ccccn3)n2)nc1
GI50 [1]: 49800 nM

O=C(/C=C/c1ccc([N+](=O)[O-])cc1)c1ccc(Oc2nc(Oc3ccc(C(=O)/C=C/c4ccc([N+](=O)[O-])cc4)cc3)nc(Oc3ccc(C(=O)/C=C/c4ccc([N+](=O)[O-])cc4)cc3)n2)cc1
inhibition zone (IZ) [5]: 7 mm
inhibition zone (IZ) [6]: 7 mm
inhibition zone (IZ) [7]: 6 mm
inhibition zone (IZ) [8]: 7 mm

Cc1ccc(C2CC(c3ccc(Oc4nc(Oc5ccc(C6=NN(C(N)=S)C(c7ccc(C)cc7)C6)cc5)nc(Oc5ccc(C6=NN(C(N)=S)C(c7ccc(C)cc7)C6)cc5)n4)cc3)=NN2C(N)=S)cc1 (stereo not drawn)
inhibition zone (IZ) [9]: 11 mm
inhibition zone (IZ) [5]: 9 mm
inhibition zone (IZ) [6]: 20 mm

O=C(/C=C/c1ccccc1)c1ccc(Oc2nc(Oc3ccc(C(=O)/C=C/c4ccccc4)cc3)nc(Oc3ccc(C(=O)/C=C/c4ccccc4)cc3)n2)cc1
inhibition zone (IZ) [5]: 7 mm
inhibition zone (IZ) [6]: 7 mm
inhibition zone (IZ) [7]: 6 mm

ClCCCN1CCN(c2nc(N3CCN(CCCl)CC3)nc(N3CCN(CCCl)CC3)n2)CC1
pIC50 [10]: 4.73
pIC50 [11]: 6.21
pIC50 [12]: 6.21
pIC50 [13]: 6.21
pIC50 [14]: 6.21
pIC50 [15]: 6.21

O=C1c2cccc3cccc(c23)C(=O)N1CCCn1c(CCN(CCc2nc3ccccc3n2CCCN2C(=O)c3cccc4cccc(c34)C2=O)CCc2nc3ccccc3n2CCCN2C(=O)c3cccc4cccc(c34)C2=O)nc2ccccc21
pIC50 [16]: 3.82
